# Active and inactive are the calls of the source.
# Assays:
# [1] = molecular target: 5-hydroxytryptamine receptor 1E (Homo sapiens, UniProt P28566); assay: Counterscreen assay for S1P3 antagonists: Dose response cell-based high throughput screening assay to identify antagonists of the 5-Hydroxytryptamine Receptor Subtype 1E (5HT1E). [Related pubchem assays: 1429, 485 ]; type: functional
# [2] = molecular target: Sphingosine 1-phosphate receptor 3 (Homo sapiens, UniProt Q99500); assay: Dose response cell-based high throughput screening assay for antagonists of the Sphingosine 1-Phosphate Receptor 3 (S1P3). [Related pubchem assays: 1429, 485 ]; type: functional
# [3] = molecular target: T1, Neuropeptide Y receptor type 2 (Homo sapiens, UniProt P49146); assay: NPY-Y2 antagonist potency, selectivity check, dose response, counter-screen for NPY-Y1 antagonist project, cell-based (AID 1278); type: functional
# T1 sequence (P49146 whole entry): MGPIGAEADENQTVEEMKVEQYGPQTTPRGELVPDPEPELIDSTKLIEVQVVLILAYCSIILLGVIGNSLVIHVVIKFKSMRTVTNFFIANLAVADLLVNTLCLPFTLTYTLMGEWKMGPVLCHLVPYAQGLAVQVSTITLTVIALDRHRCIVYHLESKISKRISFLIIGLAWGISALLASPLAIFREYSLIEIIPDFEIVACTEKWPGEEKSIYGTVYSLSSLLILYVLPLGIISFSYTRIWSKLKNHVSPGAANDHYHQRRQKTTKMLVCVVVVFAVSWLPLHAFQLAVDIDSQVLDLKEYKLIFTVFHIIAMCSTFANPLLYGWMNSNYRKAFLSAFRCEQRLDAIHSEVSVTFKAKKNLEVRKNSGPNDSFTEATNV
# [4] = molecular target: T2, Neuropeptide Y receptor type 1 (Homo sapiens, UniProt P25929); assay: NPY-Y1 receptor antagonist potency, dose response, cell-based (AID 1277); type: functional
# T2 sequence (P25929 whole entry): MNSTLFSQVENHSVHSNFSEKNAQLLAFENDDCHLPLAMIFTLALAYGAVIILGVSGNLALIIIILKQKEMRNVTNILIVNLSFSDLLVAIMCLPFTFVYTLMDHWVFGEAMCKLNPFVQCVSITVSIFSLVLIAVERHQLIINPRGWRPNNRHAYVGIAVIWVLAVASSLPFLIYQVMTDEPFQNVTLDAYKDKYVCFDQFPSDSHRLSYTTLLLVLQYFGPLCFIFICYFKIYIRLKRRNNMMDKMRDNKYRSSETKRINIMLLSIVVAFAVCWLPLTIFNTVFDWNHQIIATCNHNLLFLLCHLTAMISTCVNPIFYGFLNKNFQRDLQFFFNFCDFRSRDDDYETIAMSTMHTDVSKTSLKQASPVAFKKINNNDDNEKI
# [5] = molecular target: Peroxisome proliferator-activated receptor gamma/Nuclear receptor coactivator 3 (Homo sapiens, UniProt P37231); assay: (§1) TR-FRET dose response biochemical High Throughput Screening assay for agonists of the steroid receptor coactivator 3 (SRC-3) recruitment by the peroxisome proliferator-activated receptor gamma (PPAR gamma): non-selective agonists. [Related pubchem assays: 1301 (Confirmation screen.), 1048 (Primary screen.)]; type: functional
# [6] = molecular target: Peroxisome proliferator-activated receptor gamma/Nuclear receptor coactivator 1 (Homo sapiens, UniProt P37231); assay: as §1, with “1 (SRC-1)” for “3 (SRC-3)”, “assays (depositor defined):AID1300, AID1808, AID504735, AID631]” for “assays: 1301 (Confirmation screen.), 1048 (Primary screen.)]”; type: protein assay
# Chain of Peroxisome proliferator-activated receptor gamma/Nuclear receptor coactivator 1 (P37231 whole entry): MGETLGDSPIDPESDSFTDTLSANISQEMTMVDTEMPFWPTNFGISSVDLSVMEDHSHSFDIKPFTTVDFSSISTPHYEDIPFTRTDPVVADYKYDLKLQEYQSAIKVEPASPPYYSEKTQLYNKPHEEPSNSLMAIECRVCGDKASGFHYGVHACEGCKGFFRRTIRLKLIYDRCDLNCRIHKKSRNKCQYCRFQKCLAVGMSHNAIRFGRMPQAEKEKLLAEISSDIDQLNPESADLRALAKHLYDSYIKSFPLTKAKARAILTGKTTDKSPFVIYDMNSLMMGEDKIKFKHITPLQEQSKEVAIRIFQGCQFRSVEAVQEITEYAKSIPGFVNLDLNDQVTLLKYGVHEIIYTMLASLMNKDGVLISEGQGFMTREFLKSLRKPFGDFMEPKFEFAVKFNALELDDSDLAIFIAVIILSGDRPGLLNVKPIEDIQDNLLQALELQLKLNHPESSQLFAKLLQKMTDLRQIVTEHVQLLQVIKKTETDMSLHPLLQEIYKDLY
# Chain of Peroxisome proliferator-activated receptor gamma/Nuclear receptor coactivator 1 (Q15788 whole entry, further chain): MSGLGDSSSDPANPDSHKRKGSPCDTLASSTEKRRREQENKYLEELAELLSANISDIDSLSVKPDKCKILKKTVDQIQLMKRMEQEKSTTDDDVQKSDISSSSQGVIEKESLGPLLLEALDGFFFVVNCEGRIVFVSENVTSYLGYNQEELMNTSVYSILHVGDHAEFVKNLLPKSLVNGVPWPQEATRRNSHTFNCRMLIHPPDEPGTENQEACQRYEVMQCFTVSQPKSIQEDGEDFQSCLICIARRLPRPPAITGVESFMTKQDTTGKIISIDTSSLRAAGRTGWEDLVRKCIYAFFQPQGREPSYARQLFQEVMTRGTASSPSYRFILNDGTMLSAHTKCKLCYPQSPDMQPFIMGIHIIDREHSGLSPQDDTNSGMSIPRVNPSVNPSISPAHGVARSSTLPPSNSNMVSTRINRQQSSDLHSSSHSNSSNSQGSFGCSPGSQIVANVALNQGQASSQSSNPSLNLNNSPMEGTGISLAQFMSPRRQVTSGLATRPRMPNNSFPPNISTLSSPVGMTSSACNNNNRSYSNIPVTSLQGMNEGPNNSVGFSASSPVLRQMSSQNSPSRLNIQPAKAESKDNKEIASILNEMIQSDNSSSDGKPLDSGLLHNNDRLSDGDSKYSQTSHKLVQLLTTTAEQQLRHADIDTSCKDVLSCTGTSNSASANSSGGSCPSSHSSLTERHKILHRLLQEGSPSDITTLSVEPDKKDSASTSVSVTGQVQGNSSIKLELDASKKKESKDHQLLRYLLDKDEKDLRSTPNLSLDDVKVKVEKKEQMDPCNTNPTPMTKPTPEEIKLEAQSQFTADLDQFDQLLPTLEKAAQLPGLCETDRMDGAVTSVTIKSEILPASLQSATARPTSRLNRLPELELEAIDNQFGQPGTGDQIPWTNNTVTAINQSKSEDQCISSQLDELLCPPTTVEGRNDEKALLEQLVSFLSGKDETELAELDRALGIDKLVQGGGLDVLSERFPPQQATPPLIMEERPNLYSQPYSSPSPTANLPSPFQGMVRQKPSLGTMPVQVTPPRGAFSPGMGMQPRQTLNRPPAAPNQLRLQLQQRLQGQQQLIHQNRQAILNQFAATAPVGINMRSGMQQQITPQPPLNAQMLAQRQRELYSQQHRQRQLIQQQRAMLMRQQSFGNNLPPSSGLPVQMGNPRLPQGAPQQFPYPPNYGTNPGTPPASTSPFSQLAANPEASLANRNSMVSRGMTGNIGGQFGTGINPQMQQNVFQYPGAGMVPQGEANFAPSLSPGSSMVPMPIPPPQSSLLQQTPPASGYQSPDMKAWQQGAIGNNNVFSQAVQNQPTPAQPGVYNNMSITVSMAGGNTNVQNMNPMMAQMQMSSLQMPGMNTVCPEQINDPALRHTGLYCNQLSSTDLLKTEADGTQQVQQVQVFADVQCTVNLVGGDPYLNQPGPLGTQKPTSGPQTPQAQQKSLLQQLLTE
# [7] = molecular target: Peroxisome proliferator-activated receptor gamma/Nuclear receptor corepressor 2 (Homo sapiens, UniProt P37231+Q9Y618); assay: Counterscreen for NR2E3 inverse agonists: TR-FRET-based biochemical high throughput dose response assay to identify inverse agonists of the interaction between peroxisome proliferator-activated receptor gamma (PPARg) and nuclear receptor co-repressor 2 (NCOR2).; type: functional
# [8] = molecular target: Photoreceptor-specific nuclear receptor (Homo sapiens, UniProt Q9Y5X4); assay: NR2E3 inverse agonists, dose response, biochemical, TR-FRET (AID 463256); type: functional
# Chain of Photoreceptor-specific nuclear receptor (Q9Y5X4 whole entry): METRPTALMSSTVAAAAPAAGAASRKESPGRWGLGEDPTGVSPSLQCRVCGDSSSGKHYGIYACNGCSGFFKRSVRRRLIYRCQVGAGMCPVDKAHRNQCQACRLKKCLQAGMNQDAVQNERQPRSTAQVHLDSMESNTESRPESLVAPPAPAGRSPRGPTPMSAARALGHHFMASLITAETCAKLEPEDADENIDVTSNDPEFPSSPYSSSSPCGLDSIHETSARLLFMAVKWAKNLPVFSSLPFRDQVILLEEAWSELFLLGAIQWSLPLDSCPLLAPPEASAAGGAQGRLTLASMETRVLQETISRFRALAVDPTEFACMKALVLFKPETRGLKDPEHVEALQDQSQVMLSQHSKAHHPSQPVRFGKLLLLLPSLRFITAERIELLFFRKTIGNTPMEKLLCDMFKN
# [9] = molecular target: Peroxisome proliferator-activated receptor gamma/Nuclear receptor coactivator 2 (Homo sapiens, UniProt P37231); assay: TR-FRET dose response biochemical High Throughput Screening assay for agonists of the steroid receptor coactivator 2 (SRC-2) recruitment by the peroxisome proliferator-activated receptor gamma (PPAR gamma): non-selective agonists. [Related pubchem assays: 1297, 1032 ]; type: functional
# [10] = molecular target: Estrogen receptor beta (Homo sapiens, UniProt Q92731);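 note: recombinant ER-beta bound to coactivator SRC1 peptide in presence of estradiol agonist; inhibitors block coactivator peptide binding and lower the FRET signal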
# [11] = molecular target: Estrogen receptor (Homo sapiens, UniProt P03372);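 note: potency for inhibiting coactivator peptide recruitment to the receptor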
# Chain of Estrogen receptor (P03372 whole entry): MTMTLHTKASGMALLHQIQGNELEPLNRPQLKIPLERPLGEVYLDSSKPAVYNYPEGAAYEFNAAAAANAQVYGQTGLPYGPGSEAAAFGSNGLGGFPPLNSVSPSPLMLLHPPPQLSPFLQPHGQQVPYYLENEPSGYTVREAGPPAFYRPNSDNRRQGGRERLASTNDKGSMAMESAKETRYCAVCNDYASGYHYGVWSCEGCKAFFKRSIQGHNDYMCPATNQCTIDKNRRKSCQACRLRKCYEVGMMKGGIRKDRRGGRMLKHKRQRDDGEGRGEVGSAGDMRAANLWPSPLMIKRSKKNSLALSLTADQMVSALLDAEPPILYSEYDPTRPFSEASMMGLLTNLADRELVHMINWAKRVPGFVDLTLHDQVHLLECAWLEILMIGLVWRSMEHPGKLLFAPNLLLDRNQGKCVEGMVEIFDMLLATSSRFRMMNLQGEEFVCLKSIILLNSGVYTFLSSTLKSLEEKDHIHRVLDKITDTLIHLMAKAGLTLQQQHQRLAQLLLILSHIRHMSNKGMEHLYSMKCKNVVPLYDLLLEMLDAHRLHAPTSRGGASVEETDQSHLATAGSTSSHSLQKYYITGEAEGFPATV
# [12] = molecular target: Luciferin 4-monooxygenase (Photinus pyralis, UniProt P08659); assay: Counter Screen for Luciferase-based Assay Positives. [Related pubchem assays: 620, 618, 411 ]
# Chain of Luciferin 4-monooxygenase (P08659 whole entry): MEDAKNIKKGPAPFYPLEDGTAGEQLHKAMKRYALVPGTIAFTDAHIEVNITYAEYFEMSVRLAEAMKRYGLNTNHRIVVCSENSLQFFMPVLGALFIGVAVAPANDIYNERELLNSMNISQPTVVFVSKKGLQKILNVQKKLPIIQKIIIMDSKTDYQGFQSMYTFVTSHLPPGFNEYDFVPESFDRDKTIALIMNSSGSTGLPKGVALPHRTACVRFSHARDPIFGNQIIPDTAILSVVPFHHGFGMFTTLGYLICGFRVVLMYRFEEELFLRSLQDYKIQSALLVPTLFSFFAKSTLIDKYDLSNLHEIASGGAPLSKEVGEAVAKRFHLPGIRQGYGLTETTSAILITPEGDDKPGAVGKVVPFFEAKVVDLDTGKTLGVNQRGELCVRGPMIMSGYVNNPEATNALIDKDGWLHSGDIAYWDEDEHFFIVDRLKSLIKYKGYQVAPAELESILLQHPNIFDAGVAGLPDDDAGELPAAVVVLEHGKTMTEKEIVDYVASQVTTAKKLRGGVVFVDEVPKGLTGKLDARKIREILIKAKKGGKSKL
# [13] = inhibitors of firefly luciferase expression or activity, dose response, H4 neuroglioma cells, luminescence (AID 1990); type: functional, cell-based
# [14] = Luminescence-based counterscreen assay for KLF5 inhibitors: dose response cell-based high throughput screening assay to identify cytotoxic compounds using the IEC-6 intestinal epithelial cell line. [Related pubchem assays: 1700 (Primary screen.), 1834 (Confirmation screen.), 1858 (Summary AID.), 1905 (Counterscreen.)]; type: functional
# [15] = molecular target: T3, Leucine aminopeptidase (Plasmodium falciparum 3D7, UniProt Q8IL11); assay: P. falciparum M17LAP inhibitors, primary screen, biochemical, fluorogenic H-Leu-NHMec substrate, 1536-well (AID 1619); type: functional
# T3 sequence (Q8IL11 whole entry): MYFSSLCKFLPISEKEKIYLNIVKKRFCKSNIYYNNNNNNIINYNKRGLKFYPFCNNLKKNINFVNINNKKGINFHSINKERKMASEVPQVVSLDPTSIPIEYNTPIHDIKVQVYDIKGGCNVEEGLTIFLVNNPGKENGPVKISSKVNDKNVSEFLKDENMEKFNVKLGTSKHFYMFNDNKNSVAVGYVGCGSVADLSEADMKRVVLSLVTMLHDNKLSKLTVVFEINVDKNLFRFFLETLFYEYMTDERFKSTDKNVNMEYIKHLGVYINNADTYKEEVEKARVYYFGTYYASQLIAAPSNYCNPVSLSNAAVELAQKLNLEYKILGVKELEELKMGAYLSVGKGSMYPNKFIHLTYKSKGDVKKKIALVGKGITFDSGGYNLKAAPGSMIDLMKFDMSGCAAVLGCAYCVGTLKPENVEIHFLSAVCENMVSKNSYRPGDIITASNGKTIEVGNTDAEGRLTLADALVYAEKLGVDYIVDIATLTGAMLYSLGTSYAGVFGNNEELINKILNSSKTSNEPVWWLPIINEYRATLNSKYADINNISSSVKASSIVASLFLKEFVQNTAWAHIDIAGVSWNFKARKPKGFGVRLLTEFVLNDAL
# [16] = molecular target: Heat shock protein HSP 90-alpha (Homo sapiens, UniProt P07900); assay: Luminescence-based dose response biochemical high throughput screening assay for inhibitors of the Heat Shock Protein 90 (HSP90). [Related pubchem assays: 1831 (Summary AID.), 1846 (Confirmation screen.), 1789 (Primary screen.)]
# [17] = tested on: Jurkat; assay: antigen receptor-induced NF-kB inhibitors, dose response, Jurkat, luciferase reporter, luminescence, B- and T-cell (AID 489004); type: functional, cell-based; details: Homo sapiens;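 note: NF-kB luciferase reporter Jurkat cells stimulated with PMA plus ionomycin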
# [18] = tested on: HT-1080; assay: cytotoxicity in HT1080 fibrosarcoma cells, cell-based, fluorescence readout (AID 620); type: functional; details: Homo sapiens
# [19] = cytotoxicity in HEK-293T NF-kB-Luc cells, dose response, cytotoxicity control for B/T-cell NF-kB inhibitor project, cell-based, uHTS hits (AID 489019); type: functional;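 note: IC50 reflects cytotoxicity as loss of cell viability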
# [20] = molecular target: T4, Heat shock factor protein 1 (Mus musculus, UniProt P38532); assay: inhibition of MG132-induced HSE-luciferase signal, confirmation, cell-based, NIH3T3, luminescence, dose retest (AID 2382); type: functional;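 note: NIH3T3 fibroblasts with HSF1-driven luciferase reporter stressed by proteasome inhibitor MG132; luminescence from HSF1-driven luciferase expression after 8 hours of MG132 stress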
# T4 sequence (P38532 whole entry): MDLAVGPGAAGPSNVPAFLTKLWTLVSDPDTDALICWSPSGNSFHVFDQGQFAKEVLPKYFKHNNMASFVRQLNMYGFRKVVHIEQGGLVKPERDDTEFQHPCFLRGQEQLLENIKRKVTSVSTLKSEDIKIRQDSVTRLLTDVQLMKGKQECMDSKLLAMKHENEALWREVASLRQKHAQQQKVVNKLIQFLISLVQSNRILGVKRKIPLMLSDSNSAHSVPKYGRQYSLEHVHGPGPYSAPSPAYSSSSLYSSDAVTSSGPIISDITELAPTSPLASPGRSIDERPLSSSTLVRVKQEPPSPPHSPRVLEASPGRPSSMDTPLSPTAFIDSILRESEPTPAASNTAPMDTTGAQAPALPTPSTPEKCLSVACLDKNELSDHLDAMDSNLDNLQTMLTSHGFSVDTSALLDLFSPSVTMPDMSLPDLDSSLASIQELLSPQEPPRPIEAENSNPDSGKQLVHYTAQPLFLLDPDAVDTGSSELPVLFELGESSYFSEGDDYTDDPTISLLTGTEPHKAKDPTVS
# [21] = molecular target: Glyceraldehyde-3-phosphate dehydrogenase (Homo sapiens, UniProt P04406)
# Chain of Glyceraldehyde-3-phosphate dehydrogenase (P04406 whole entry): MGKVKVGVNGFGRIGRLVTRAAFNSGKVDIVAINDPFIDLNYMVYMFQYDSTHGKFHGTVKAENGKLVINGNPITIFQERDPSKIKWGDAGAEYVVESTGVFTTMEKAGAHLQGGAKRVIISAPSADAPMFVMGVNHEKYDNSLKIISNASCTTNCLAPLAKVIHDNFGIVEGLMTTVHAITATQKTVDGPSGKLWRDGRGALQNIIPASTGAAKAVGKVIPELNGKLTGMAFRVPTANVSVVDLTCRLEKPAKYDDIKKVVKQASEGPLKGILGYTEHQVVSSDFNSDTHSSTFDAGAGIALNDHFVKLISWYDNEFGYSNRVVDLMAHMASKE
# [22] = molecular target: T5, Microphthalmia-associated transcription factor (Homo sapiens, UniProt O75030); assay: TRPM1 promoter luciferase signal decrease, dose response, MITF inhibitor project, cell-based, SK-MEL-5, cherry-picked, set 3 (AID 493073); type: functional
# T5 sequence (O75030 whole entry): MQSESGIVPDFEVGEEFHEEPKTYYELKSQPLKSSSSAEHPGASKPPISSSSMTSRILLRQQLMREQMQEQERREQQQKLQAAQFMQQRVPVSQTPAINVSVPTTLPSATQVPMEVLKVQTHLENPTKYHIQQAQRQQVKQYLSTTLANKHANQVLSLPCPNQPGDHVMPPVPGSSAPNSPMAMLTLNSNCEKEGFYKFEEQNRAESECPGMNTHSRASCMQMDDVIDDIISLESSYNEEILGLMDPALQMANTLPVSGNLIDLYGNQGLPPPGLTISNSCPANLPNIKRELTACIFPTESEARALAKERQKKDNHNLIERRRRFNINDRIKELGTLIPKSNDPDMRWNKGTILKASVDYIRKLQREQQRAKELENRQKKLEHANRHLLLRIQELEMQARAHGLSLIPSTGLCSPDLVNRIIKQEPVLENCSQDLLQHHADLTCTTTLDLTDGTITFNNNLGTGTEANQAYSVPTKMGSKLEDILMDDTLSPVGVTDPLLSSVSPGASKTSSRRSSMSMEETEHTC
# [23] = inhibitors of SNCA 5'UTR-driven reporter translation, confirmation, H4 neuroglioma cells, luminescence (AID 1988); type: functional, cell-based
# [24] = Luminescence Cell-Based Dose Response HTS to Identify Inhibitors of 5'UTR Stem-Loop Driven Prion Protein mRNA Translation in H4 Neuroglioblastoma Cells. [Related pubchem assays: 1827 (Project Summary), 1813 (Primary HTS)]; type: functional
# [25] = molecular target: Induced myeloid leukemia cell differentiation protein Mcl-1 (Homo sapiens, UniProt Q07820); type: functional
# [26] = inhibitors of Bluetongue virus cytopathic effect, confirmation, arbovirus, BSR cells (AID 1250); type: functional;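 note: protection from viral cytopathic effect measured as cell viability by ATP luminescence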
# [27] = molecular target: Voltage-gated inwardly rectifying potassium channel KCNH2 (Homo sapiens, UniProt Q12809); assay: hERG protection from proarrhythmic block, potency, dose response, cell-based, thallium flux (AID 2121); type: ADME
# Chain of Voltage-gated inwardly rectifying potassium channel KCNH2 (Q12809 whole entry): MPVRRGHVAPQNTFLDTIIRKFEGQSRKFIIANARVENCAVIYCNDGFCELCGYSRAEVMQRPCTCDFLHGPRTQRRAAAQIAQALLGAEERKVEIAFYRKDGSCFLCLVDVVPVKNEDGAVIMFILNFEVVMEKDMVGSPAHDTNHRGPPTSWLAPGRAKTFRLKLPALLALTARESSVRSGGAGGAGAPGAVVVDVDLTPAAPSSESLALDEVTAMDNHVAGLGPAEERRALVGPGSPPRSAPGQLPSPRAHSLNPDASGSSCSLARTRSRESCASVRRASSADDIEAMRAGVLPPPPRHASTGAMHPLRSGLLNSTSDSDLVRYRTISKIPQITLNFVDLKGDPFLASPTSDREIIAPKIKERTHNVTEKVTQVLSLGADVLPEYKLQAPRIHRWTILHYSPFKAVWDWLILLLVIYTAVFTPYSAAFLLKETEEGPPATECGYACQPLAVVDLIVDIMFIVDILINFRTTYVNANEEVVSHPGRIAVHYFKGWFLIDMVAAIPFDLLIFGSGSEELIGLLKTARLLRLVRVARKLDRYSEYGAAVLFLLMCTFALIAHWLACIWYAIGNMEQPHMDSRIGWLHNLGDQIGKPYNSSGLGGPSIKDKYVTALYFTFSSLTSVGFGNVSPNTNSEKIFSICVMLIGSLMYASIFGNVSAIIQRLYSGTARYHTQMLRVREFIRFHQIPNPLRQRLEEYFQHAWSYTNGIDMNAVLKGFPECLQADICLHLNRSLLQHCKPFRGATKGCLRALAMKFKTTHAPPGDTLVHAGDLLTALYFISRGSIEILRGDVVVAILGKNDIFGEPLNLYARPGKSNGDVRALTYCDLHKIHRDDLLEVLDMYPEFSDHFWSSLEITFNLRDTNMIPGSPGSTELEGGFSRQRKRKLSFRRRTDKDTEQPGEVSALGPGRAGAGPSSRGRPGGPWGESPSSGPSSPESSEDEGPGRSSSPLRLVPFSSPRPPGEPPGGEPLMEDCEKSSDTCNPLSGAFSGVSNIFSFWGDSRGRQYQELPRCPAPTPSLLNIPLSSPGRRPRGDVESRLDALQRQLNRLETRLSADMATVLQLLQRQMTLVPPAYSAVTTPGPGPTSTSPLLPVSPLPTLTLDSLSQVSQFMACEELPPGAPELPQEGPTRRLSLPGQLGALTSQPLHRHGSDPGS
# [28] = inhibitors of intracellular T. cruzi replication, confirmation, NIH3T3 host cells, beta-gal luminescence (AID 2044); type: functional, cell-based;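 note: intracellular parasites grown in NIH/3T3 mouse fibroblasts as host cells; luminescent beta-galactosidase reporter signal from transgenic T. cruzi replicating inside host cells; inhibitors lower the luminescence signal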
# [29] = A High Throughput Confirmatory Assay used to Identify Novel Compounds that Inhibit Mycobacterium Tuberculosis in the absence of Glycerol.; type: functional
# [30] = cytotoxicity toward NIH3T3 fibroblasts, dose response, counter-screen, cell-based, ATP luminescence, mouse fibroblasts (AID 2010); type: functional;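 note: cells exposed to compound for about 90 hours before reading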
# [31] = molecular target: T6, Bcl-2-related protein A1 (Mus musculus, UniProt Q07440); assay: Bfl-1 binding inhibitors, SAR follow-up, biochemical, fluorescence polarization (AID 1070)
# T6 sequence (Q07440 whole entry): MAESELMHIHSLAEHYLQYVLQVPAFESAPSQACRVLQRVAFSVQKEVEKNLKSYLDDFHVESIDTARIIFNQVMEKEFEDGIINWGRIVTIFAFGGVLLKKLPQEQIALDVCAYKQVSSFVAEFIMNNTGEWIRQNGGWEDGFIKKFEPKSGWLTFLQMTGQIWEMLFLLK
# [32] = molecular target: T6, Bcl-2-related protein A1; assay: Bfl-1 inhibitors blocking BH3 peptide binding, confirmation, biochemical, TR-FRET, mouse Bfl-1 (AID 621);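 note: TR-FRET binding of GST-Bfl-1 to FITC-labelled Bid peptide via terbium antibody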
structure (smiles),measurement,setting,value
Cc1ccc(NC(=O)C(OC(=O)c2ccccc2Cl)c2ccccc2)cc1Cl (stereo not drawn),IC50,[1],5.28 µM (active)
same,IC50,[2],9.24 µM (active)
CC1=CC(C)(C)N(C(=O)CNC2CCCCC2)c2cc(C)ccc21,IC50,[3],12.3 µM (not active)
same,IC50,[4],6.84 µM (active)
O=C(COc1ccc2ccccc2c1)NCCNC(=O)COc1ccc2ccccc2c1,EC50,[5],47.8 µM (not active)
same,EC50,[6],8.38 µM (active)
same,IC50,[7],5.82 µM (active)
same,IC50,[8],4.75 µM (active)
same,EC50,[9],8.67 µM (active)
CCOC(=O)C1=C(O)/C(=C\c2ccc(CNC(=O)C(=O)Nc3ccc(C)c(C)c3)o2)N=C1C,IC50,[10],> 50 µM (not active)
same,IC50,[11],40.5 µM (not active)
O=C(O)CSCC(=O)Nc1ccc(C2CCCCC2)cc1,EC50,[12],3.61 µM (active)
same,EC50,[13],0.101 µM (active)
same,IC50,[14],> 39.8 µM (not active)
same,IC50,[15],12.6 µM (active)
same,IC50,[16],> 60 µM (not active)
same,IC50,[17],0.26 µM (active)
same,EC50,[18],> 50 µM (not active)
same,IC50,[19],> 80 µM (inactive)
same,EC50,[20],0.415 µM (active)
same,IC50,[21],> 100 µM (not active)
same,AC50,[22],2.12 µM (active)
same,EC50,[23],2.2 µM (active)
same,EC50,[24],0.395 µM (active)
CN1CCN(S(=O)(=O)c2ccc(NC(=S)NC(=O)c3ccc(Cl)cc3)cc2)CC1,IC50,[25],4.19 µM (active)
same,IC50,[26],> 100 µM (active)
CCOc1ccccc1NC(=O)C(=O)CC(=O)c1ccc(OC)cc1,EC50,[27],3.01 µM (active)
CCCCNc1nc(N(C)c2ccccc2)nc(-n2ccnc2)n1,EC50,[28],0.55 µM (active)
same,IC50,[29],> 100 µM (active)
same,EC50,[30],> 30 µM (not active)
O=C1C(Cl)=C(N2CCOCC2)C(=O)N1c1c(Cl)cccc1Cl,IC50,[31],> 100 µM (not active)
same,IC50,[32],> 100 µM (not active)
same,IC50,[21],> 10 µM (inconclusive)

# From ChEMBL document CHEMBL1201862, “PubChem BioAssay data set” (2004)
